In patent US12398111B2, “Triazine compounds and pharmaceutical use thereof” (Japan Tobacco Inc., priority 2014, dated 2025):

target: T1, human mPGES-1 (Homo sapiens, UniProt O14684); test: Evaluation of human mPGES-1 enzyme inhibitory activity (PGE2 measured by HTRF, microsome fraction of CHO-S cells expressing human mPGES-1); assay type: biochemical; conditions: IC50 value; microsome fraction of CHO-S cells expressing human mPGES-1, PGE2 by HTRF
T1 construct: made in house; host or cells: FreeStyle CHO-S cells (Chinese hamster ovary), transient transfection with pcDNA3.1(+)/human mPGES-1; microsome fraction used
T1 sequence (O14684 1-152): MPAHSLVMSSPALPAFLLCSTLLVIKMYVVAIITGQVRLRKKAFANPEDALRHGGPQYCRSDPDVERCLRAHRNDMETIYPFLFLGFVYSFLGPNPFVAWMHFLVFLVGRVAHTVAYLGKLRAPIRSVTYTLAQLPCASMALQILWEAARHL
Method: That is, the amount of PGE2 produced by human mPGES-1 in the presence of a test article was measured by the HTRF (homogeneous time resolved fluorescence) method, based on which the human mPGES-1 enzyme inhibitory activity of the test article was determined.
1) Preparation of Human mPGES-1 Expressing Cell Microsome Fraction
A DNA fragment containing human mPGES-1, which is added with a BamHI recognition cleavage sequence immediately before the translation initiation codon and an EcoRI recognition cleavage sequence immediately after the translation termination codon was amplified by the PCR (Polymerase Chain Reaction) method using a human mPGES-1 expression plasmid DNA (pME-18S/iPGES-1) prepared in-house as a template. The purified DNA fragment was digested with BamHI and EcoRI, and ligated to pcDNA3.1(+) (Invitrogen, model number V790-20), similarly digested with BamHI and EcoRI, by using a DNA Ligation kit ver.2.1 (Takara Bio, model number 6022). The human mPGES-1 expression plasmid DNA was isolated from Escherichia coli DH5a (TOYOBO, model number DNA-903) transformed with the obtained ligation product. The base sequence of human mPGES-1 cloned to a vector was determined by the Dye Terminator method by using BigDye Terminator v3.1 Cycle Sequencing Kit (Applied Biosystems, #4337455).
Human mPGES-1 expression plasmid DNA was transfected into Chinese hamster ovary-derived cells (FreeStyle CHO-S Cell, Invitrogen, #R800-07) by using a transgene reagent (FreeStyle MAX Reagent (Invitrogen, #16447-100)), and cultured with shaking (8% CO2, 37° C.) in a medium containing 8 mmol/L L-glutamine (GIBCO FreeStyle CHO Expression Medium, Invitrogen, #12651-022) for 48 hr.
The CHO-S cells were suspended in Homogenate Buffer (100 mmol/L potassium phosphate (pH 7.4), 250 mmol/L Sucrose, 100 mmol/L EDTA, complete EDTA free (Roche, #1873580)). Using an ultrasonic disruptor UD-201 (Tomy Seiko), the suspended cells were disrupted at output:3, duty cycle:50 for 30 seconds. The precipitate was removed by centrifugation (1,000×g, 5 min, 4° C.), is and the supernatant was centrifuged (5,000×g, 10 min, 4° C.). The supernatant was further centrifuged (105,000×g, 60 min, 4° C.). The obtained precipitate was suspended in Resuspension Buffer (100 mmol/L potassium phosphate (pH 7.4), 250 mmol/L sucrose, 100 mmol/L EDTA, 10% glycerol) to give a microsome fraction.
The protein concentration of the microsome fraction was measured by the Bradford method (Protein Assay Kit, Bio-Rad). The microsome fraction was rapidly frozen in liquid nitrogen and preserved at −80° C. Human mPGES-1 in the microsome fraction was detected by Western Blot using rabbit anti-mPGES-1 polyclonal antibody (ThermoFisher Scientific, #PA1-10264).
2) Evaluation of Human mPGES-1 Enzyme Inhibitory Activity
A test article solution diluted with 0.1 mol/L potassium phosphate, pH 7.4 (hereinafter to be referred to as KPB) or DMSO (Nacalai Tesque, #13407-45) was added at 5 μL/well to 96 well V-bottom plate (Corning, #3363). The final DMSO concentration during the reaction was set to 2% (v/v). Furthermore, a microsome fraction of CHO-S cells expressing human mPGES-1, which was diluted with reduced GSH (12.5 mmol/L KPB solution, SIGMA, #G6529-25G) such that the protein concentration was 5 μg/mL, was added at 20 μL/well. The amount of the microsome fraction used is the amount of microsome fraction within a range where the amount of PGE2 produced under the reaction conditions shown below and the amount of microsome fraction used show linearity. To the blank was added reduced GSH (12.5 mmol/L KPB solution) at 20 μL/well.

| IC50 | Compound |
| --- | --- |
| 1.6 nM | CO[C@](C)(C(=O)NC(C)c1ccc(Cl)c(-c2nc(O)nc(-c3ccc(F)c(C)c3)n2)c1)C(F)(F)F (single isomer, unassigned) [Example 1-188] |
| 1100 nM | CO[C@](C)(C(=O)NC(C)c1ccc(Cl)c(-c2nc(O)nc(-c3ccc(F)c(C)c3)n2)c1)C(F)(F)F (single isomer, unassigned) [Example 1-189] |
| 10 nM | CO[C@](C)(C(=O)NC(C)c1ccc(Cl)c(-c2nc(O)nc(-c3ccc(OCC(C)(C)C)cc3)n2)c1)C(F)(F)F (single isomer, unassigned) [Example 1-200] |
| 306 nM | CO[C@](C)(C(=O)NC(C)c1ccc(Cl)c(-c2nc(O)nc(-c3ccc(OCC(C)(C)C)cc3)n2)c1)C(F)(F)F (single isomer, unassigned) [Example 1-201] |
| 98 nM | CC1CCC(CO)(C(=O)NCc2ccc(Cl)c(-c3nc(O)nc(-c4ccccc4)n3)c2)CC1 (single isomer, unassigned) [Example 1-256] |
| 17 nM | CC1CCC2(CC1)CN(Cc1ccc(Cl)c(-c3nc(O)nc(-c4ccccc4)n3)c1)C2=O (single isomer, unassigned) [Example 1-257] |
| 11 nM | CC(C)(C)C1CCC2(CC1)CN(Cc1ccc(Cl)c(-c3nc(O)nc(-c4ccccc4)n3)c1)C2=O (single isomer, unassigned) [Example 1-266, 7-tert-butyl-2-[4-chloro-3-(4-hydroxy-6-phenyl-1,3,5-triazin-2-yl)benzyl]-2-azaspiro[3.5]nonan-1-one] |
| 150 nM | COC1CCC2(CC1)CN(Cc1ccc(Cl)c(-c3nc(O)nc(-c4ccccc4)n3)c1)C2=O (single isomer, unassigned) [Example 1-267] |
| 813 nM | Cc1ccc(F)cc1-c1nc(O)nc(-c2ccc(C(F)(F)F)cc2)n1 [Example 1-1] |
| 138 nM | Cc1ccc(C)c(-c2nc(O)nc(-c3ccc(C(F)(F)F)cc3)n2)c1 [Example 1-2] |
| 164 nM | Cc1ccc(Cl)cc1-c1nc(O)nc(-c2ccc(C(F)(F)F)cc2)n1 [Example 1-3] |
| 25 nM | Cc1ccc(Cl)c(-c2nc(O)nc(-c3ccc(C(F)(F)F)cc3)n2)c1 [Example 1-4] |
| 672 nM | Oc1nc(-c2ccc(C(F)(F)F)cc2)nc(-c2cc(OC(F)(F)F)ccc2Cl)n1 [Example 1-5] |
| 163 nM | COc1ccc(Cl)c(-c2nc(O)nc(-c3ccc(C(F)(F)F)cc3)n2)c1 [Example 1-6] |
| 652 nM | Oc1ccc(Cl)c(-c2nc(O)nc(-c3ccc(C(F)(F)F)cc3)n2)c1 [Example 1-7] |
| 27000 nM | O=C(O)c1ccc(Cl)c(-c2nc(O)nc(-c3ccc(C(F)(F)F)cc3)n2)c1 [Example 1-8] |
| 601 nM | Cc1ccc(C(F)(F)F)cc1-c1nc(O)nc(-c2ccc(C(F)(F)F)cc2)n1 [Example 1-9] |
| 15 nM | OCc1ccc(Cl)c(-c2nc(O)nc(-c3ccc(C(F)(F)F)cc3)n2)c1 [Example 1-12] |
| 397 nM | CC(=O)c1ccc(Cl)c(-c2nc(O)nc(-c3ccc(C(F)(F)F)cc3)n2)c1 [Example 1-13] |
| 1410 nM | CCc1ccc(C)c(-c2nc(O)nc(-c3ccc(C(F)(F)F)cc3)n2)c1 [Example 1-14] |
| 7.4 nM | CC(C)(C)OC(=O)NCc1ccc(Cl)c(-c2nc(O)nc(-c3ccc(C(F)(F)F)cc3)n2)c1 [Example 1-15] |
| 10 nM | CC(=O)NCc1ccc(Cl)c(-c2nc(O)nc(-c3ccc(C(F)(F)F)cc3)n2)c1 [Example 1-16] |
| 735 nM | NCc1ccc(Cl)c(-c2nc(O)nc(-c3ccc(C(F)(F)F)cc3)n2)c1 [Example 1-17] |
| 114 nM | CC(O)c1ccc(Cl)c(-c2nc(O)nc(-c3ccc(C(F)(F)F)cc3)n2)c1 (stereo not drawn) [Example 1-18] |
| 411 nM | COCc1ccc(Cl)c(-c2nc(O)nc(-c3ccc(C(F)(F)F)cc3)n2)c1 [Example 1-19] |

| IC50 | Compound |
| --- | --- |
| 1.6 nM | CS(=O)(=O)NCc1ccc(Cl)c(-c2nc(O)nc(-c3ccc(C(F)(F)F)cc3)n2)c1 [Example 1-20] |
| 988 nM | CC(=O)N(C)Cc1ccc(Cl)c(-c2nc(O)nc(-c3ccc(C(F)(F)F)cc3)n2)c1 [Example 1-21] |
| 2.7 nM | COC(=O)NCc1ccc(Cl)c(-c2nc(O)nc(-c3ccc(C(F)(F)F)cc3)n2)c1 [Example 1-22] |
| 134 nM | O=C(O)Cc1ccc(Cl)c(-c2nc(O)nc(-c3ccc(C(F)(F)F)cc3)n2)c1 [Example 1-23] |
| 0.6 nM | CC(C)(C)C(=O)NCc1ccc(Cl)c(-c2nc(O)nc(-c3ccc(C(F)(F)F)cc3)n2)c1 [Example 1-24] |
| 108 nM | CC(=O)OCc1ccc(Cl)c(-c2nc(O)nc(-c3ccc(C(F)(F)F)cc3)n2)c1 [Example 1-25] |
| 18 nM | CNC(=O)Cc1ccc(Cl)c(-c2nc(O)nc(-c3ccc(C(F)(F)F)cc3)n2)c1 [Example 1-26] |
| 1 nM | CCC(=O)NCc1ccc(Cl)c(-c2nc(O)nc(-c3ccc(C(F)(F)F)cc3)n2)c1 [Example 1-27] |
| 0.6 nM | CC(C)C(=O)NCc1ccc(Cl)c(-c2nc(O)nc(-c3ccc(C(F)(F)F)cc3)n2)c1 [Example 1-28] |
| 1.1 nM | O=C(NCc1ccc(Cl)c(-c2nc(O)nc(-c3ccc(C(F)(F)F)cc3)n2)c1)C1CCCCC1 [Example 1-29] |
| 0.6 nM | O=C(NCc1ccc(Cl)c(-c2nc(O)nc(-c3ccc(C(F)(F)F)cc3)n2)c1)C1CCCC1 [Example 1-30] |
| 1 nM | CCS(=O)(=O)NCc1ccc(Cl)c(-c2nc(O)nc(-c3ccc(C(F)(F)F)cc3)n2)c1 [Example 1-31] |
| 0.7 nM | CC(C)(C)S(=O)(=O)NCc1ccc(Cl)c(-c2nc(O)nc(-c3ccc(C(F)(F)F)cc3)n2)c1 [Example 1-32] |
| 0.8 nM | CC(C)S(=O)(=O)NCc1ccc(Cl)c(-c2nc(O)nc(-c3ccc(C(F)(F)F)cc3)n2)c1 [Example 1-33] |
| 5.9 nM | CN(C)C(=O)NCc1ccc(Cl)c(-c2nc(O)nc(-c3ccc(C(F)(F)F)cc3)n2)c1 [Example 1-34] |
| 22 nM | CNC(=O)NCc1ccc(Cl)c(-c2nc(O)nc(-c3ccc(C(F)(F)F)cc3)n2)c1 [Example 1-35] |
| 0.7 nM | CCCC(=O)NCc1ccc(Cl)c(-c2nc(O)nc(-c3ccc(C(F)(F)F)cc3)n2)c1 [Example 1-36] |
| 0.8 nM | CC(C)CC(=O)NCc1ccc(Cl)c(-c2nc(O)nc(-c3ccc(C(F)(F)F)cc3)n2)c1 [Example 1-37] |
| 1.5 nM | CCOC(=O)NCc1ccc(Cl)c(-c2nc(O)nc(-c3ccc(C(F)(F)F)cc3)n2)c1 [Example 1-38] |
| 1.9 nM | CC(C)OC(=O)NCc1ccc(Cl)c(-c2nc(O)nc(-c3ccc(C(F)(F)F)cc3)n2)c1 [Example 1-39] |
| 2230 nM | CN(C)C(=O)Cc1ccc(Cl)c(-c2nc(O)nc(-c3ccc(C(F)(F)F)cc3)n2)c1 [Example 1-40] |
| 2.3 nM | CC(C)(C)NC(=O)Cc1ccc(Cl)c(-c2nc(O)nc(-c3ccc(C(F)(F)F)cc3)n2)c1 [Example 1-41] |
| 1 nM | O=S(=O)(NCc1ccc(Cl)c(-c2nc(O)nc(-c3ccc(C(F)(F)F)cc3)n2)c1)C1CCCC1 [Example 1-42] |
| 2 nM | CC(C)(C)C(=O)NCc1ccc(Cl)c(-c2nc(O)nc(-c3ccccc3)n2)c1 [Example 1-43] |

same assay, conditions: at 30 μM test article

| inhibition at 30 µM | Compound |
| --- | --- |
| 5% | Cc1ccc(C(=O)O)cc1-c1nc(O)nc(-c2ccc(C(F)(F)F)cc2)n1 [Example 1-10] |
| 42% | Cc1ccc(C(N)=O)cc1-c1nc(O)nc(-c2ccc(C(F)(F)F)cc2)n1 [Example 1-11] |
